Measured values reported in article PMC10251479, “PROTAC-Induced Glycogen Synthase Kinase 3β Degradation as a Potential Therapeutic Strategy for Alzheimer’s Disease” (ACS Chemical Neuroscience, 2023).
“And” between values parts separate entries of the source, which are not always exact repeats. Equal entries are not always repeated.

How the values were obtained:
PAMPA-BBB permeation = assay type: in vitro ADME; details: for Papp at 2.75 h: PAMPA, pH 7.4, PBS:EtOH (70:30), 2 h 45 min at 25 °C, porcine brain lipid, mean ± SD of two independent experiments, read-out: Pe (experimental data)
Procedure: 11. PAMPA BBB permeation studies.
Prediction of the brain penetration was evaluated using a parallel artificial membrane permeability assay (PAMPA).[12] Ten commercial drugs, PBS at pH 7.4, EtOH, and dodecane were purchased from Sigma- Aldrich, Acros organics, Merck, and Fluka. The porcine polar brain lipid (PBL) was from Avanti Polar Lipids. The donor plate was a 96-well filtrate plate (Multiscreen® IP Sterile Plate PDVF […]
both from Millipore. Filter PDVF membrane units (diameter 30 mm, pore size 0.45 µm) from Symta were used to filter the samples. A 96-well plate UV reader (Biteck Instruments, Synergy H4 Hibrid Reader) was used for the UV measurements.
12 mg of promazine) were dissolved in 1 mL of EtOH. 100 µL of this compound stock solution were taken and 1400 µL of EtOH and 3500 µL of PBS were added to reach 30% of EtOH concentration in the experiment. These solutions were filtered. The acceptor 96-well microplate was filled with 180 µL of PBS/EtOH (70/30). The donor 96-well plate was coated with 4 µL of porcine brain lipid in dodecane (20 mg mL-1) and after 5 min, 180 µL of each compound solution was added. 1 mg of […]
of EtOH and 1.4 mL of PBS, filtered and then added to the donor 96-well plate. Then the donor plate was carefully put on the acceptor plate to form a “sandwich”, which was left undisturbed for 2 h and 45 min at 25 °C. During this time the compounds diffused from the donor plate through the brain lipid membrane into the acceptor plate. After incubation, the donor plate was removed. UV plate reader determined the concentration of compounds and commercial drugs in the acceptor and the donor plates. Every sample was analyzed at three to five wavelengths (between 200 and 500 nm), in 3 wells and in two independent runs. Results are given as the mean and the average of the two runs is reported. Quality control compounds (previously mentioned) of known BBB permeability were included in each experiment to validate the analysis set.

GSK-3β protein [1] = molecular target: T1, GSK-3β protein (Homo sapiens, UniProt P49841); test: GSK-3β degradation by Western blotting in SH-SY5Y cells; assay type: cell-based; design: endogenous in cells; host or cells: SH-SY5Y; details: 10 μM, 48 h, Western blotting
T1 sequence (P49841 whole entry): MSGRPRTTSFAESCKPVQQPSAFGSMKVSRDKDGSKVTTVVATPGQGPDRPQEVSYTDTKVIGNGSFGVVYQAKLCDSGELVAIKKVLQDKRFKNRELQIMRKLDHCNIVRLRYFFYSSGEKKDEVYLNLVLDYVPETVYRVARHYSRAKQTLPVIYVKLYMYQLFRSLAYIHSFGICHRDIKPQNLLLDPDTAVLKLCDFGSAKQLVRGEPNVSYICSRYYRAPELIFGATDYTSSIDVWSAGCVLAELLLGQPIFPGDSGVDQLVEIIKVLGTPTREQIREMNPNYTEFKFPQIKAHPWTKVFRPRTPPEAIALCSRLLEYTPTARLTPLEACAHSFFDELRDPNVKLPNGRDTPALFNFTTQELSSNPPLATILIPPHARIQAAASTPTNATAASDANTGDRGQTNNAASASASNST
Procedure: Determination of GSK-3β degradation by Western Blotting
At the end of incubation, cells were trypsinized and the cellular pellet was resuspended in complete lysis buffer containing leupeptin (2 µg/mL, Sigma-Aldrich), phenylmethylsulfonyl fluoride (PMSF, 100 µg/mL, Sigma-Aldrich) and a cocktail of protease/phosphatase inhibitors (100×). The protein concentration was determined using the Bradford method (Bio-Rad Laboratories Srl, Hercules, CA, USA). The protein lysates (50 µg per […]
polyacrylamide gels, Bio-Rad Laboratories SrL) and electroblotted onto 0.45 µm nitrocellulose membranes. Membranes were incubated overnight at 4 °C with primary antibody recognizing GSK-3β (1:1000, Cell Signaling Technologies Inc, Danvers, MA, USA). Membranes were then washed with TRIS-buffered saline-T (TBS + 0.05% Tween20), and then incubated with horseradish peroxidase (POD) linked anti-rabbit secondary antibody (1:2000, GE Healthcare, Chicago, IL, USA).
Immunoreactive bands were visualized by enhanced chemiluminescence (ECL, Bio-Rad Laboratories Srl). The same membranes were stripped and reprobed with anti β-actin (1:1000, Sigma-Aldrich). Data were normalized on the β-actin bands and analyzed by densitometry, using the Quantity One software (Bio-Rad Laboratories Srl).[9] […]

GSK-3β protein [2] = molecular target: T1, GSK-3β protein; test: GSK-3β inhibition in vitro assay (Kinase-Glo luminescent); assay type: biochemical; design: purchased Millipore (Millipore Iberica S.A.U.); details: ATP 1 μM, GSM substrate 25 μM, 30 min at 37 °C; mean of at least two determinations in duplicate; read-out: IC50 ± SEM, GSK-3β activity
Excerpt: N-(2-(2-(2-((2-(2,6-dioxopiperidin-3-yl)-1,3-dioxoisoindolin-4-yl)amino)ethoxy)ethoxy)ethyl)- 4-((2-(naphthalen-1-yl)-3,5-dioxo-1,2,4-thiadiazolidin-4-yl)methyl)benzamide (4). Synthesized […]
GSK-3β inhibition in vitro assay. Human recombinant GSK-3β, prephosphorylated polypeptide substrate and white 96-well plates were purchased from Millipore (Millipore Iberica S.A.U.). Kinase-Glo Luminescent Kinase Assay was obtained from Promega (Promega Biotech Iberica, SL).
Adenosinetriphosphate (ATP) and all other reagents were from Sigma-Aldrich. Assay buffer contained 50 mM 4-(2-hydroxyethyl)-1- piperazineethanesulfonic acid (HEPES) (pH 7.5), 1 mM ethylenediaminetetraacetic acid (EDTA), 1 mM ethylene glycol tetraacetic acid (EGTA), and 15 mM magnesium acetate. The in solution experiments for GSK-3β inhibition analysis were performed by following the method developed by Baki et al.[1] In a typical assay, 10 μL of test compound (dissolved […]
in DMSO at 1 mM concentration and diluted in advance in assay buffer to the desired concentration) and 10 μL (20 ng) of enzyme were added to each well in presence of 20 μL of assay buffer containing […]
After a 30 min incubation time at 37 °C, the enzymatic reaction was stopped by adding 40 μL of Kinase-Glo reagent. Glow-type luminescence was recorded after 10 min using a Victorx3 (PerkinElmer Waltham, MA, USA) plate […]
inhibitory activities were calculated based on maximal kinase (average positive) and luciferase activities (average negative) measured in the absence of inhibitor and in the presence of reference […]
μM), respectively. The linear regression parameters were determined and the IC 50 extrapolated by GraphPad software (version 5.0; GraphPad Software, La Jolla, CA, USA).

SH-SY5Y cells [3] = test: Cytotoxicity in SH-SY5Y cells (MTT); assay type: cell-based, human; details: MTT, 24 h treatment, 1.25–40 μM
Procedure: Human neuronal SH-SY5Y cells (Sigma-Aldrich, St. Louis, MO, USA) were routinely grown in Dulbecco’s modified Eagle’s Medium supplemented with 10% fetal bovine serum, 2 mM l-glutamine, 50 U/mL penicillin, and 50 μg/mL streptomycin at 37 °C in a humidified incubator with […]
Determination of cytotoxicity
(§1) SH-SY5Y cells were seeded in a 96-well plate at 2 × 10^4 cells/well, incubated for 24 h and then […]
for 24 h at 37°C in 5% CO2. The cell viability, in terms of mitochondrial metabolic function, was evaluated by the reduction of 3-(4,5-dimethyl-2-thiazolyl)-2,5-diphenyl-2H-tetrazolium bromide […]
(MTT) to its insoluble formazan. Briefly, the treatment was replaced with MTT in HBSS [0.5 mg/mL] for 2 h at 37°C in 5% CO2. After washing with HBSS, formazan crystals were dissolved in isopropanol. The amount of formazan was measured (570 nm, reference filter 690 nm) using a multilabel plate reader (VICTOR™ X3, PerkinElmer, Waltham, MA, USA). Data are expressed as mean of three independent experiments. […]

[4] = commercial drugs of the validation study; ref [12]; cited from earlier work
SH-SY5Y cells [5] = test: Neuroprotective effects against CuSO4 in SH-SY5Y cells (MTT); assay type: cell-based, human; details: 1 μM, 24 h, CuSO4 150 μM, MTT
Procedure: as §1
presence of CuSO4 (150 µM) at 37 °C in 5 % CO2. Cells were also treated with compound 1 (1 µM) for 24 h in the presence of lactacystin (5 µM). At the end of the treatment, the cell viability, in terms of mitochondrial metabolic function, was evaluated by the reduction of 3-(4,5-dimethyl-2-thiazolyl)- 2,5-diphenyl-2H-tetrazolium bromide (MTT) to its insoluble formazan. Briefly, the treatment was replaced with MTT in HBSS [0.5 mg/mL] for 2 h at 37°C in 5% CO2. After washing with HBSS, formazan crystals were dissolved in isopropanol. The amount of formazan was measured (570 nm, reference filter 690 nm) using a multilabel plate reader (VICTOR™ X3, PerkinElmer, Waltham, MA, USA).[10] Data are reported as mean ± SEM of three independent experiments. The neurotoxicity was expressed as a percentage of control cells and calculated by the formula: 100 – ((absorbance of treated

[6] = classified from experimental Pe

| Papp at 2.75 h (PAMPA-BBB permeation) | SMILES | total GSK-3β protein level (GSK-3β protein [1]) | concentration at which cytotoxicity was shown (SH-SY5Y cells [3]) | also measured |
| --- | --- | --- | --- | --- |
| 20.7 ± 3.93 ×10⁻⁶ cm/s | O=C(Cn1cc(C2=C(c3ccc(Cl)cc3Cl)C(=O)NC2=O)c2ccccc21)NCCOCCOCCNc1cccc2c1C(=O)N(C1CCC(=O)NC1=O)C2=O (stereo not drawn) [Compound 3] | significantly decreased the total level of GSK-3β protein | higher than 20 μM | IC50 (GSK-3β protein [2]): 457 ± 99 nM; BBB permeability classification (PAMPA-BBB permeation; [6]): predicted to cross the BBB; Prediction (penetration in the CNS) (PAMPA-BBB permeation; [6]): CNS + (CNS + (green) for P e > 15.78 × 10−6 cm s−1) |
| 10.3 ± 0.95 ×10⁻⁶ cm/s | CCn1cc(C(=O)O)c(=O)c2cc(F)c(N3CCNCC3)nc21 [Enoxacin, reference compound] |  |  |  |
| 5.37 ± 0.17 ×10⁻⁶ cm/s | CCn1cc(C(=O)O)c(=O)c2cc(F)c(N3CCNCC3)cc21 [Norfloxacin, reference compound] |  |  |  |
| 12.8 ± 0.63 ×10⁻⁶ cm/s | CN1C(C(=O)Nc2ccccn2)=C(O)c2ccccc2S1(=O)=O [Piroxicam, reference compound] |  |  | Pe (literature data) [4]: 2.5 10-6 cm s-1 |

Continued, compound first:

| SMILES | Papp at 2.75 h (PAMPA-BBB permeation) | total GSK-3β protein level (GSK-3β protein [1]) | concentration at which cytotoxicity was shown (SH-SY5Y cells [3]) | also measured |
| --- | --- | --- | --- | --- |
| Cn1c(=O)c2c(ncn2C)n(C)c1=O [Caffeine, reference compound] | 7.29 ± 0.57 ×10⁻⁶ cm/s |  |  |  |
| O=C1CCC(N2C(=O)c3cccc(NCCCOCCCCOCCCNC(=O)c4ccc(Cn5c(=O)sn(-c6cccc7ccccc67)c5=O)cc4)c3C2=O)C(=O)N1 (stereo not drawn) [Compound 2] |  | did not induce GSK-3β degradation | ≥ 20 µM | IC50 (GSK-3β protein [2]): 79.3 nM and 79 nM |
| O=C1CCC(N2C(=O)c3cccc(NCCOCCOCCNC(=O)c4ccc(Cn5c(=O)sn(-c6cccc7ccccc67)c5=O)cc4)c3C2=O)C(=O)N1 (stereo not drawn) [Compound 4, N-(2-(2-(2-((2-(2,6-dioxopiperidin-3-yl)-1,3-dioxoisoindolin-4-yl)amino)ethoxy)ethoxy)ethyl)-4-((2-(naphthalen-1-yl)-3,5-dioxo-1,2,4-thiadiazolidin-4-yl)methyl)benzamide] |  | did not induce GSK-3β degradation | higher than 20 μM | IC50 (GSK-3β protein [2]): 178 nM |
| CNCCCN1c2ccccc2CCc2ccccc21 [Desipramine, reference compound] | 36.5 ± 5.35 ×10⁻⁶ cm/s |  |  |  |
| CN(C)CCCN1c2ccccc2Sc2ccccc21 [Promazine, reference compound] | 24.2 ± 0.89 ×10⁻⁶ cm/s |  |  | Pe (literature data) [4]: 8.8 10-6 cm s-1 |
| Cn1cc(C2=C(c3ccc(Cl)cc3Cl)C(=O)NC2=O)c2ccccc21 [SB-216763, reference compound] |  | did not modify the basal level of GSK-3β protein | higher than 20 μM | neurotoxicity induced by CuSO4 (SH-SY5Y cells [5]): significantly counteracted the neurotoxicity induced by CuSO4 |
| O=c1sn(-c2cccc3ccccc23)c(=O)n1Cc1ccccc1 [tideglusib, reference compound] |  |  |  | neurotoxicity induced by CuSO4 (SH-SY5Y cells [5]): significantly counteracted the neurotoxicity induced by CuSO4 |
